Experimental data: ChEMBL document CHEMBL5705903, “A DNA Hypomethylation Signature Predicts Antitumor Activity of LSD1 Inhibitors in SCLC” (Cancer Cell, 2015)
Activity calls are given as the source filed them. The calls are words filed in the database; no cut-off is given here.

Legend:
[1] = AUC (0 to t) in mouse at 5.5 mg/kg, ip by HPLC/MS/MS analysis; format: ADME, organism-based; settings: in vivo
[2] = Toxicity in dog assessed as suppression of erythroid maturation in bone marrow measured for 28 days; design: species or system Canis lupus familiaris; settings: in vivo, 672 h, time 28 day
[3] = Effect on cleaved PARP level in human COLO-668 cells assessed as fold change at 10 nM measured after 7 days by Western blot analysis (reference value: 1.00); format: functional; settings: time 7 day
[4] = Effect on cleaved PARP level in human NCI-H526 cells assessed as relative expression at 100 nM measured after 10 days by Western blot analysis (reference value: 0.81); format: functional; settings: time 10 day
COLO-668 = assay: Effect on SYP gene expression in human COLO-668 cells at 1 uM measured after 4 days by qRT-PCR analysis; format: functional, cell-based; settings: time 4.0 day
D-amino-acid oxidase = D-amino-acid oxidase (Homo sapiens, UniProt P14920)
Description: Binding affinity to D-amino acid oxidase (unknown origin) assessed as inactivation constant

[5] = Effect on cleaved PARP level in human NCI-H1694 cells assessed as fold change at 100 nM measured after 7 days by Western blot analysis (reference value: 1.00); format: functional; settings: time 7 day
[6] = Effect on cleaved PARP level in human NCI-H889 cells assessed as fold change at 100 nM measured after 7 days by Western blot analysis (reference value: 1.00); format: functional; settings: time 7 day
[7] = Effect on cleaved PARP level in human COLO-668 cells assessed as fold change at 100 nM measured after 10 days by Western blot analysis (reference value: 1.00); format: functional; settings: time 10 day
[8] = Effect on cleaved PARP level in human NCI-H1694 cells assessed as relative expression at 10 nM measured after 10 days by Western blot analysis (reference value: 0.31); format: functional; settings: time 10 day
[9] = Effect on cleaved PARP level in human NCI-H524 cells assessed as fold change at 1000 nM measured after 10 days by Western blot analysis (reference value: 1.00); format: functional; settings: time 10 day
[10] = Effect on cleaved PARP level in human NCI-H526 cells assessed as fold change at 1000 nM measured after 14 days by Western blot analysis (reference value: 1.00); format: functional; settings: time 14 day
[11] = Toxicity in mouse xenografted with human NCI-H526 cells assessed as body weight loss at 1.5 mg/kg, po administered daily measured for 30 days; format: organism-based; settings: in vivo, 720 h, time 30 day
NCI-H526 [12] = assay: In vivo inhibition of LSD1 in human NCI-H526 cells xenografted in nude mouse assessed as change in TSPAN8 gene expression measured after 24 hrs post single administration by qRT-PCR analysis; format: functional, organism-based; settings: dose 0.06-135 mg/kg
[13] = Effect on cleaved PARP level in human NCI-H510 cells assessed as relative expression at 100 nM measured after 14 days by Western blot analysis (reference value: 0.01); format: functional, NCI-H510A; settings: time 14 day
NCI-H69 = assay: Antitumor activity against human NCI-H69 cells xenografted in nude mouse assessed as tumor growth inhibition at 1.5 mg/kg, po administered daily measured twice weekly relative to control; format: functional; settings: read-out: TGI
NCI-H526 [14] = assay: In vivo inhibition of LSD1 in human NCI-H526 cells xenografted in nude mouse assessed as change in ODZ2 gene expression administrated daily for 5 days by qRT-PCR analysis; format: functional, organism-based; settings: dose 0.02-135 mg/kg, time 5.0 day
[15] = Effect on cleaved PARP level in human COLO-668 cells assessed as relative expression at 100 nM measured after 7 days by Western blot analysis (reference value: […]); format: functional; settings: time 7 day
[16] = Effect on cleaved PARP level in human NCI-H524 cells assessed as relative expression at 1000 nM measured after 10 days by Western blot analysis (reference value: 0.95); format: functional; settings: time 10 day
[17] = Effect on cleaved PARP level in human NCI-H526 cells assessed as fold change at 10 nM measured after 14 days by Western blot analysis (reference value: 1.00); format: functional; settings: time 14 day
[18] = Effect on cleaved PARP level in human NCI-H889 cells assessed as fold change at 1000 nM measured after 7 days by Western blot analysis (reference value: 1.00); format: functional; settings: time 7 day
[19] = Effect on cleaved PARP level in human NCI-H889 cells assessed as relative expression at 100 nM measured after 10 days by Western blot analysis (reference value: 0.33); format: functional; settings: time 10 day
[20] = Toxicity in rat assessed as myelofibrosis measured for 28 days; settings: in vivo, 672 h, time 28 day
NCI-H2171 = assay: Antitumor activity against human NCI-H2171 cells xenografted in nude mouse assessed as mean tumor volume at […] mg/kg, po administered daily measured twice weekly (reference value: 1553 +/- 339 mm3); format: functional; settings: 1.25 mg/kg
[21] = Effect on cleaved PARP level in human NCI-H510 cells assessed as fold change at 100 nM measured after 14 days by Western blot analysis (reference value: 1.00); format: functional, NCI-H510A; settings: time 14 day
[22] = Effect on cleaved PARP level in human NCI-H146 cells assessed as relative expression at 1000 nM measured after 7 days by Western blot analysis (reference value: […]); format: functional; settings: time 7 day
[23] = Effect on cleaved PARP level in human NCI-H146 cells assessed as fold change at 1000 nM measured after 10 days by Western blot analysis (reference value: 1.00); format: functional; settings: time 10 day
[24] = molecular target: Lysine-specific histone demethylase 1A (Homo sapiens, UniProt O60341); assay: Binding affinity to LSD1 (unknown origin) using H3K4me2 as substrate assessed as apparent inhibition constant by HRP-coupled amplex red assay; settings: read-out: Ki(app)
[25] = Effect on cleaved PARP level in human COLO-668 cells assessed as relative expression at 100 nM measured after 10 days by Western blot analysis (reference value: 1.07); format: functional; settings: time 10 day
[26] = Effect on cleaved PARP level in human NCI-H889 cells assessed as fold change at 10 nM measured after 7 days by Western blot analysis (reference value: 1.00); format: functional; settings: time 7 day
[27] = Effect on cleaved PARP level in human NCI-H526 cells assessed as fold change at 10 nM measured after 7 days by Western blot analysis (reference value: 1.00); format: functional; settings: time 7 day
[28] = Effect on cleaved PARP level in human NCI-H510 cells assessed as fold change at 10 nM measured after 7 days by Western blot analysis (reference value: 1.00); format: functional, NCI-H510A; settings: time 7 day
NCI-H446 = assay: Effect on NCAM gene expression in human NCI-H446 cells at 1 uM measured after 4 days by qRT-PCR analysis; format: functional, cell-based; settings: time 4.0 day
NCI-H1417 = assay: Cell growth inhibition of human NCI-H1417 cells measured upto 10 days; format: functional, cell-based; settings: time <= 10.0 day
NCI-H510A = assay: Antitumor activity against human NCI-H510A cells xenografted in nude mouse assessed as tumor growth inhibition at 1.5 mg/kg, po administered daily measured twice weekly relative to control; format: functional; settings: read-out: TGI
[29] = Effect on cleaved PARP level in human NCI-H510 cells assessed as fold change at 1000 nM measured after 7 days by Western blot analysis (reference value: 1.00); format: functional, NCI-H510A; settings: time 7 day

D-amino-acid oxidase, sequence (P14920 whole entry, looked up): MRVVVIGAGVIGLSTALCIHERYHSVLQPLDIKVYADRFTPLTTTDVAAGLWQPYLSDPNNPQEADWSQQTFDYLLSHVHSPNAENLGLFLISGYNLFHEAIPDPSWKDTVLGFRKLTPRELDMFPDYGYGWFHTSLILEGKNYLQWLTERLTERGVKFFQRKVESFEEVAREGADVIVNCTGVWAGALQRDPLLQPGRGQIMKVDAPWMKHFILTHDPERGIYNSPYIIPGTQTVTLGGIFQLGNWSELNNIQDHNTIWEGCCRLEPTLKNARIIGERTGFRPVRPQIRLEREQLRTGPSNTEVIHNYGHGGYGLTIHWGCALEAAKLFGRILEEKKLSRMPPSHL

For `c1ccc([C@@H]2C[C@H]2NC2CCNCC2)cc1`, the AUC(0-t) [1] was 871 ng·h/mL.

In the case of `O=C(O)c1ccc(CN2CCC(CN[C@@H]3C[C@H]3c3ccccc3)CC2)cc1` [GSK2879552], the Activity [2] is reported as “Toxic”, the “fold change (FC)” value [3] is reported as 0.74 and the Activity [4] is reported as 0.94. The Activity (COLO-668) was “inactive”, the Kinact (D-amino-acid oxidase) was 0.12 min⁻¹ and the “fold change (FC)” value [5] was 1.11. The “fold change (FC)” value [6] was 1.25, the “fold change (FC)” value [7] was 0.69 and the Activity [8] was 0.27. The “fold change (FC)” value [9] was 0.83, the “fold change (FC)” value [10] was 1.37 and the Activity [11] was “Non-Toxic”. The inhibition (NCI-H526 [12]) was “Dose-Dependent Effect”, the Activity [13] was 0.52 and the inhibition in vivo at 1.5 mg/kg (NCI-H69) was 49%. For the same molecule, the inhibition (NCI-H526 [14]) was “Dose-Dependent Effect”, the Activity [15] was 1.52 and the Activity [16] was 0.79. The “fold change (FC)” value [17] was 0.73, the “fold change (FC)” value [18] was 1.92 and the Activity [19] was 0.74. The Activity [20] was “Toxic”, the Activity (NCI-H2171) was 1055 mm3 and the “fold change (FC)” value [21] was 2.92. For the same molecule, the Activity [22] was 2.43, the “fold change (FC)” value [23] was 0.89 and the Ki [24] was 1700 nM. The Activity [25] was 0.74, the “fold change (FC)” value [26] was 0.09 and the “fold change (FC)” value [27] was 0.85. The “fold change (FC)” value [28] was 1.27, the Activity (NCI-H446) was “inactive” and the “growth inhibition (GI)” value (NCI-H1417) was “Dose-Dependent Effect”. The inhibition in vivo at 1.5 mg/kg (NCI-H510A) was 38% and the “fold change (FC)” value [29] was 2.06.
